The term EC50 denotes the concentration needed to bring the measured effect to its halfway point.

The values that follow come from US9012398B2, “Acylated exendin-4 compounds” (priority 2006, dated 2015).

Where two headings read alike, the source gives them in different places. Starred links: 1 amine or outer side, 2 acyl side, 3 side chain; linkers in the order of their positions; H or OH if unused. Residues, ends and D or L forms follow the SMILES beside them. Groups on a side chain read outwards from the residue. *: point of attachment. C18 diacid = O=C(O)CCCCCCCCCCCCCCCCC(=O)*; γGlu = O=C(O)[C@H](CCC(=O)[*:2])N[*:1]; Stearoyl = CCCCCCCCCCCCCCCCCC(=O)*; Palmitoyl = CCCCCCCCCCCCCCCC(=O)*; AEEA = NCCOCCOCC(=O)O

The target in this test is T1, human GLP-1 receptor (Homo sapiens, UniProt P43220).
T1 construct: expressed in transfected cells; host or cells: BHK cells, clone BHK-467-12A; plasma membrane preparation
T1 sequence (P43220 24-463): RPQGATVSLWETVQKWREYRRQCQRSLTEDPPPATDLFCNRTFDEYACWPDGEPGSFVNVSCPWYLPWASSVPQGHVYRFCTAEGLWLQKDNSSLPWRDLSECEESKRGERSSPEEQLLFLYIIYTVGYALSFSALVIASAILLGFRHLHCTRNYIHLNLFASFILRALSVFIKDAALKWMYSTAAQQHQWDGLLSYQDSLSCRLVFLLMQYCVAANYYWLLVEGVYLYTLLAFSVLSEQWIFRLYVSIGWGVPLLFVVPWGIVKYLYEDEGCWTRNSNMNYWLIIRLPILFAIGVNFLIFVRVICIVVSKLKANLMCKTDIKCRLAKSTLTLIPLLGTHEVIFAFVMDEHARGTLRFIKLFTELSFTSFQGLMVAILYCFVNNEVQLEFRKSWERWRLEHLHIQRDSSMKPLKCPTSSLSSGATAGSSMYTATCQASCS
Kind of test: Functional receptor assay: cAMP formation in plasma membranes of BHK cells expressing the cloned human GLP-1 receptor (GLP1cAMPma). It is filed as biochemical. The method, then: The term “insulinotropic agent” as used herein means a compound which is an agonist of the human GLP-1 receptor, i.e. a compound which stimulates the formation of cAMP in a suitable medium containing the human GLP-1 receptor (one such medium disclosed below). The potency of an insulinotropic agent is determined by calculating the EC50 value from the dose-response curve as described below.
The cells were washed twice in phosphate buffered saline and harvested with Versene. Plasma membranes were prepared from the cells by homogenisation with an Ultraturrax in buffer 1 (20 mM HEPES-Na, 10 mM EDTA, pH 7.4). The homogenate was centrifuged at 48,000×g for 15 min at 4° C. The pellet was suspended by homogenization in buffer 2 (20 mM HEPES-Na, 0.1 mM EDTA, pH 7.4), then centrifuged at 48,000×g for 15 min at 4° C. The washing procedure was repeated one more time. The final pellet was suspended in buffer 2 and used immediately for assays or stored at −80° C.
The functional receptor assay was carried out by measuring cyclic AMP (cAMP) as a response to stimulation by the insulinotropic agent. cAMP formed was quantified by the AlphaScreen™ cAMP Kit (Perkin Elmer Life Sciences). Incubations were carried out in half-area 96-well microtiter plates in a total volume of 50 μL buffer 3 (50 mM Tris-HCl, 5 mM HEPES, 10 mM MgCl2, pH 7.4) and with the following additions: 1 mM ATP, 1 μM GTP, 0.5 mM 3-isobutyl-1-methylxanthine (IBMX), 0.01% Tween-20, 0.1% BSA, 6 μg membrane preparation, 15 μg/mL acceptor beads, 20 μg/mL donor beads preincubated with 6 nM biotinyl-cAMP. […] GTP was freshly prepared for each experiment. The plate was incubated in the dark with slow agitation for three hours at room temperature followed by counting in the Fusion™ instrument (Perkin Elmer Life Sciences). Concentration-response curves were plotted for the individual compounds and EC50 values estimated using a four-parameter logistic model with Prism v. 4.0 (GraphPad, Carlsbad, Calif.).
(Cyclic AMP is a second messenger, typically raised through Gs and lowered through Gi signalling.)

[1] abbreviates: cAMP, membranes with human GLP-1 receptor, mean value, read-out: GLP1cAMPma (3693) [EC50 (nM)] Mean Value.

With `CCCCCCCCCCCCCCCC(=O)N[C@@H](CCC(=O)NCCOCCOCC(=O)NCCCC[C@H](NC(=O)[C@H](CO)NC(=O)[C@H](CO)NC(=O)[C@@H]1CCCN1C(=O)CNC(=O)CNC(=O)[C@H](CC(N)=O)NC(=O)[C@H](CCCNC(=N)N)NC(=O)[C@H](CC(C)C)NC(=O)[C@H](Cc1c[nH]c2ccccc12)NC(=O)[C@H](CCC(=O)O)NC(=O)[C@@H](NC(=O)[C@H](Cc1ccccc1)NC(=O)[C@H](CC(C)C)NC(=O)[C@H](CCCNC(=N)N)NC(=O)[C@@H](NC(=O)[C@H](C)NC(=O)[C@H](CCC(=O)O)NC(=O)[C@H](CCC(=O)O)NC(=O)[C@H](CCC(=O)O)NC(=O)[C@H](CC(C)C)NC(=O)[C@H](CCC(N)=O)NC(=O)[C@H](CCCNC(=N)N)NC(=O)[C@H](CO)NC(=O)[C@H](CC(C)C)NC(=O)[C@H](CC(=O)O)NC(=O)[C@H](CO)NC(=O)[C@@H](NC(=O)[C@H](Cc1ccccc1)NC(=O)[C@@H](NC(=O)CNC(=O)[C@H](CCC(=O)O)NC(=O)CNC(=O)[C@@H](N)Cc1c[nH]cn1)[C@@H](C)O)[C@@H](C)O)C(C)C)[C@@H](C)CC)C(=O)N[C@@H](C)C(=O)N1CCC[C@H]1C(=O)N1CCC[C@H]1C(=O)N1CCC[C@H]1C(=O)N[C@@H](CO)C(N)=O)C(=O)O` [Example 7, N-ε^34-[2-(2-[2-[4-hexadecanoylamino-4(S)-carboxybutyrylamino]ethoxy]ethoxy)acetyl][Arg^12,27,Leu^14,Lys^34] Exendin-4(1-39)amide] (H-HGEGTFTSDLSRQLEEEAVRLFIEWLRNGGPSSK([AEEA-γGlu-Palmitoyl])APPPS-NH2), the half-maximal effective concentration (EC50) was found to be 0.012 nM.
`CC[C@H](C)[C@H](NC(=O)[C@H](Cc1ccccc1)NC(=O)[C@H](CC(C)C)NC(=O)[C@H](CCCNC(=N)N)NC(=O)[C@@H](NC(=O)[C@H](C)NC(=O)[C@H](CCC(=O)O)NC(=O)[C@H](CCC(=O)O)NC(=O)[C@H](CCC(=O)O)NC(=O)[C@H](CCCCNC(=O)COCCOCCNC(=O)COCCOCCNC(=O)CCCCCCCCCCCCCCCCC(=O)O)NC(=O)[C@H](CCC(N)=O)NC(=O)[C@H](CCCNC(=N)N)NC(=O)[C@H](CO)NC(=O)[C@H](CC(C)C)NC(=O)[C@H](CC(=O)O)NC(=O)[C@H](CO)NC(=O)[C@@H](NC(=O)[C@H](Cc1ccccc1)NC(=O)[C@@H](NC(=O)CNC(=O)[C@H](CCC(=O)O)NC(=O)CNC(=O)[C@@H](N)Cc1c[nH]cn1)[C@@H](C)O)[C@@H](C)O)C(C)C)C(=O)N[C@@H](CCC(=O)O)C(=O)N[C@@H](Cc1c[nH]c2ccccc12)C(=O)N[C@@H](CC(C)C)C(=O)N[C@H](C(=O)N[C@@H](CCCNC(=N)N)C(=O)NCC(=O)NCC(=O)N1CCC[C@H]1C(=O)N[C@@H](CO)C(=O)N[C@@H](CO)C(=O)NCC(=O)N[C@@H](C)C(=O)N1CCC[C@H]1C(=O)N1CCC[C@H]1C(=O)N1CCC[C@H]1C(=O)N[C@@H](CO)C(N)=O)C(C)C` [Example 27] (H-HGEGTFTSDLSRQK([AEEA-AEEA-C18 diacid])EEEAVRLFIEWLVRGGPSSGAPPPS-NH2; N-terminus assumed): under setting [1], the EC50 was found to be 3.65 nM.
The same measure, in the same setting: under `CCCCCCCCCCCCCCCC(=O)N[C@@H](CCC(=O)NCCOCCOCC(=O)NCCOCCOCC(=O)NCCCC[C@H](NC(=O)[C@@H](NC(=O)[C@H](C)NC(=O)[C@H](CCC(=O)O)NC(=O)[C@H](CCC(=O)O)NC(=O)[C@H](CCC(=O)O)NC(=O)[C@H](CC(C)C)NC(=O)[C@H](CCC(N)=O)NC(=O)[C@H](CCCNC(=N)N)NC(=O)[C@H](CO)NC(=O)[C@H](CC(C)C)NC(=O)[C@H](CC(=O)O)NC(=O)[C@H](CO)NC(=O)[C@@H](NC(=O)[C@H](Cc1ccccc1)NC(=O)[C@@H](NC(=O)CNC(=O)[C@H](CCC(=O)O)NC(=O)CNC(=O)[C@@H](N)Cc1c[nH]cn1)[C@@H](C)O)[C@@H](C)O)C(C)C)C(=O)N[C@@H](CC(C)C)C(=O)N[C@@H](Cc1ccccc1)C(=O)N[C@H](C(=O)N[C@@H](CCC(=O)O)C(=O)N[C@@H](Cc1c[nH]c2ccccc12)C(=O)N[C@@H](CC(C)C)C(=O)N[C@@H](CCCNC(=N)N)C(=O)N[C@@H](CCC(N)=O)C(=O)NCC(=O)NCC(=O)N1CCC[C@H]1C(=O)N[C@@H](CO)C(=O)N[C@@H](CO)C(=O)NCC(=O)N[C@@H](C)C(=O)N1CCC[C@H]1C(=O)N1CCC[C@H]1C(=O)N1CCC[C@H]1C(=O)N[C@@H](CO)C(N)=O)[C@@H](C)CC)C(=O)O` [Example 18, N-ε^20-2-(2-(2-(2-(2-(2-(4-(Hexadecanoylamino)-4(S)-carboxybutyrylamino)ethoxy)ethoxy)acetylamino)ethoxy)ethoxy)acetyl[Arg^12,27,Leu^14,Lys^20,Gln^28]Exendin-4-(1-39)-peptide amide] (H-HGEGTFTSDLSRQLEEEAVK([AEEA-AEEA-γGlu-Palmitoyl])LFIEWLRQGGPSSGAPPPS-NH2; N-terminus assumed) stands 0.033 nM.
`CCCCCCCCCCCCCCCCCC(=O)NCCOCCOCC(=O)NCCOCCOCC(=O)NCCOCCOCC(=O)NCCCC[C@H](NC(=O)[C@@H](NC(=O)[C@H](CC(C)C)NC(=O)[C@H](Cc1c[nH]c2ccccc12)NC(=O)[C@H](CCC(=O)O)NC(=O)[C@@H](NC(=O)[C@H](Cc1ccccc1)NC(=O)[C@H](CC(C)C)NC(=O)[C@H](CCCNC(=N)N)NC(=O)[C@@H](NC(=O)[C@H](C)NC(=O)[C@H](CCC(=O)O)NC(=O)[C@H](CCC(=O)O)NC(=O)[C@H](CCC(=O)O)NC(=O)[C@H](CC(C)C)NC(=O)[C@H](CCC(N)=O)NC(=O)[C@H](CCCNC(=N)N)NC(=O)[C@H](CO)NC(=O)[C@H](CC(C)C)NC(=O)[C@H](CC(=O)O)NC(=O)[C@H](CO)NC(=O)[C@@H](NC(=O)[C@H](Cc1ccccc1)NC(=O)[C@@H](NC(=O)CNC(=O)[C@H](CCC(=O)O)NC(=O)CNC(=O)[C@@H](N)Cc1c[nH]cn1)[C@@H](C)O)[C@@H](C)O)C(C)C)[C@@H](C)CC)C(C)C)C(=O)NCC(=O)NCC(=O)N1CCC[C@H]1C(=O)N[C@@H](CO)C(=O)N[C@@H](CO)C(=O)NCC(=O)N[C@@H](C)C(=O)N1CCC[C@H]1C(=O)N1CCC[C@H]1C(=O)N1CCC[C@H]1C(=O)N[C@@H](CO)C(N)=O` [Example 3, N-ε^28-(2-(2-(2-(2-(2-(2-(2-(2-(2-(Octadecanoylamino)ethoxy)ethoxy)acetylamino)ethoxy)ethoxy)acetyl-amino)ethoxy)ethoxy)acetyl))[Arg^12,Leu^14,Val^27,Lys^28 Exendin-4(1-39)amide] (H-HGEGTFTSDLSRQLEEEAVRLFIEWLVK([AEEA-AEEA-AEEA-Stearoyl])GGPSSGAPPPS-NH2; N-terminus assumed): the response was half-maximal at 0.025 nM (EC50).
Consider `CCCCCCCCCCCCCCCCCC(=O)N[C@@H](CCC(=O)NCCOCCOCC(=O)NCCOCCOCC(=O)NCCCC[C@H](NC(=O)[C@@H]1CCCN1C(=O)CNC(=O)CNC(=O)[C@H](CCCNC(=N)N)NC(=O)[C@@H](NC(=O)[C@H](CC(C)C)NC(=O)[C@H](Cc1c[nH]c2ccccc12)NC(=O)[C@H](CCC(=O)O)NC(=O)[C@@H](NC(=O)[C@H](Cc1ccccc1)NC(=O)[C@H](CC(C)C)NC(=O)[C@H](CCCNC(=N)N)NC(=O)[C@@H](NC(=O)[C@H](C)NC(=O)[C@H](CCC(=O)O)NC(=O)[C@H](CCC(=O)O)NC(=O)[C@H](CCC(=O)O)NC(=O)[C@H](CC(C)C)NC(=O)[C@H](CCC(N)=O)NC(=O)[C@H](CCCNC(=N)N)NC(=O)[C@H](CO)NC(=O)[C@H](CC(C)C)NC(=O)[C@H](CC(=O)O)NC(=O)[C@H](CO)NC(=O)[C@@H](NC(=O)[C@H](Cc1ccccc1)NC(=O)[C@@H](NC(=O)CNC(=O)[C@H](CCC(=O)O)NC(=O)CNC(=O)[C@@H](N)Cc1c[nH]cn1)[C@@H](C)O)[C@@H](C)O)C(C)C)[C@@H](C)CC)C(C)C)C(=O)N[C@@H](CO)C(=O)NCC(=O)N[C@@H](C)C(=O)N1CCC[C@H]1C(=O)N1CCC[C@H]1C(=O)N1CCC[C@H]1C(=O)N[C@@H](CO)C(N)=O)C(=O)O` [Example 17, N-ε^32-(2-(2-(2-(2-(2-(2-(4-(Octadecanoylamino)-4(S)-carboxybutyrylamino))ethoxy)ethoxy)acetylamino)ethoxy)ethoxy)acetyl[Arg^12,Leu^14,Val^27,Arg^28,Lys^32]Exendin-4-(1-39)amide] (H-HGEGTFTSDLSRQLEEEAVRLFIEWLVRGGPK([AEEA-AEEA-γGlu-Stearoyl])SGAPPPS-NH2; N-terminus assumed), for which the midpoint of the response, the EC50, lay at 0.025 nM.
